From US4696920A, “Certain 2-substituted 1,3-propylidenediphosphonate derivatives, pharmaceutical compositions containing them and their use as antihypertensive agents” (priority 1984, dated 1987)

Assays:
[1] = system: [^3 H]-PN-200 110 (dihydropyridine) binding site of calcium channel, rat brain membranes; experiment: [^3 H]-PN-200 110 binding to rat brain membranes; parameters: species or system rat (male Wistar); settings: for Specifically bound [^3 H]-PN-200 110 % of control value: compound concentration 1.0 μM; for Specifically bound [^3 H]-PN-200 110 % of control value / Bound ^3 H at 1.0 μM / Bound ^3 H at 0.1 μM: Table 1b; for Bound ^3 H at 1.0 μM / Bound ^3 H at 0.1 μM: ratio of [^3 H]-PN-200 110 bound at 1.0 and 0.1 μM compound
Experimental: Diltiazem hydrochloride was a generous gift from Goedecke A. G.
Water insoluble compounds were dissolved in absolute ethanol to give 10 mM or 2.5 mM stock solutions. Suitable dilutions were made in 50 mM Tris-HCl buffer (pH 7.4) containing 150 mM NaCl and 1 mM CaCl2. The ethanol concentration in the final assay never exceeded 0.1%.
The purity of the radioligand and of the various agents tested was monitored by thin layer chromatography on silica gel plates.
The following procedure was adapted from Bellemann et al (Proc. Nat. Acad. Sci. 80, 2356, 1983), and Gould et al (Proc. Nat. Acad. Sci. 79, 3656, 1982).
Adult male Wistar rats weighing 250-300 g were anesthetized with carbon dioxide prior to decapitation. The brain was removed then immersed in ice-cold 0.32M sucrose and washed 2-3 times with fresh solution. Cerebral cortex was minced and homogenized (Potter-Elvehjem homogenizer) in 10 volumes of ice-cold sucrose solution. The homogenate was centrifuged (4° C.) at 1000×g for 15 minutes. The resulting supernatant was then centrifuged at 90000×g (30 minutes) and the pellet was washed twice with 20 ml ice-cold 50 mM Tris-HCl pH 7.4.
The final pellet was resuspended in 50 mM Tris-HCl pH 7.4/150 mM NaCl/1 mM CaCl2 to give a protein concentration of 4 mg/ml.
The membrane suspension was kept on ice until used. Binding assays were performed in subdued light to prevent dihydropyridine breakdown. Membrane protein (400 μg/tube) was incubated in 50 mM Tris-HCl buffer (pH 7.4)/150 mM NaCl/1 mM CaCl2 with the indicated concentrations of radioligand and test compounds or known calcium antagonists, in a total volume of 2 ml. After the indicated time intervals, the reaction was terminated by rapid filtration through Whatman GF/B glass fiber filters (2.4 cm diameter) on a Millipore filter holder. The assay tube was rinsed with 2 ml ice-cold 50 mM Tris-HCl pH (7.4) and the precipitate was further washed with 2×5 ml of the same buffer.
Filters were dried under a heat lamp and were extracted with 10 ml of liquid scintillation cocktail (Toluene/Triton X-100, 2/1 containing 4 g Omnifluor/1) prior to tritium determination at 48% counting efficiency.
Assays were performed in duplicate or triplicate.
Data were expressed as percent specific [^3 H]-Nitrendipine binding relative to the established control value.
Compound activity in the [^3 H]-Nitrendipine binding assay was evaluated by using the following criteria:
1. [^3 H]-Nitrendipine binding at 1.0 μM compound final concentration was either below 95% or above 105% of the control value determined in absence of compound.
2. The ratio obtained by dividing the amount of specifically found [^3 H]-Nitrendipine at 1.0 μM compound final concentration by the value obtained at 0.1 μM test compound, was smaller than 0.9 or greater than 1.1. This ratio is indicative of a dose response relationship within the compound concentration range tested, when the value differs appreciably from 1.0.
Note: In some experiments [^3 H]-PN200 110, a new and commercially available specific dihydropyridine was used instead of [^3 H]-Nitrendipine.

[2] = system: drug receptor sites associated with calcium channels; settings: known calcium antagonists; cited from earlier work
[3] = system: mean blood pressure in rat; experiment: Acute intravenous hypotensive activity in anesthetized rats; format: in vivo, rat (male Wistar); settings: Rattus norvegicus, iv, read-out: Decrease in mean blood pressure (% pretest)
Experimental: Male Wistar rats were anesthetized with Pentobarbital (Nembutal, 60 mg/kg i.p.) and heparinized (5 mg/kg i.p.). After tracheotomy the right carotid was cannulated (catheter PE 50); blood pressure was measured with a pressure transducer (Statham P 23 db) and recorded on a polygraph (Beckman).
Animals received 0.5 and 1.5 mg/kg of the test compounds. Less than 100 μl of test compounds dissolved in 0.9% saline were injected in the jugular vein. Highly water insoluble compounds were suspended in 2% Tween-80. Injection of the vehicle alone had no detectable hypotensive effect.
Results presented are expressed as percent decrease in initial mean blood pressure (Mean±SEM).

| SMILES | Specifically bound [^3 H]-PN-200 110 % of control value [1] | Bound ^3 H at 1.0 μM / Bound ^3 H at 0.1 μM [1] | further results |
| --- | --- | --- | --- |
| CCCCOP(=O)(CC(Cc1cc2c(cc1Cl)OCO2)CP(=O)(OCCCC)OCCCC)OCCCC [Compound 99] | 56 % of control value | 0.627 |  |
| CCCCOP(=O)(CC(CCOc1ccc(-c2ccccc2)cc1)CP(=O)(OCCCC)OCCCC)OCCCC [Compound 100] | 38 % of control value | 0.504 |  |
| CCCCOP(=O)(CC(Cc1cnc(C)c2c1COC(C)(C)O2)CP(=O)(OCCCC)OCCCC)OCCCC [Compound 101] | 47 % of control value | 0.527 |  |
| CCCCOP(=O)(CC(Cc1cnc(C)c(O)c1CO)CP(=O)(OCCCC)OCCCC)OCCCC [Compound 102, Tetrabutyl 2-[5-(3-hydroxy-4-hydroxymethyl-2-methyl)pyridylmethyl]1,3-propylidenediphosphonate] | 89 % of control value | 0.925 |  |
| CCCCOP(=O)(CC(Cc1ccc(CN2CCN(c3ccccc3)CC2)cc1)CP(=O)(OCCCC)OCCCC)OCCCC [Compound 104] | 59 % of control value | 0.687 |  |
| CCCCOP(=O)(CC(CCCC1(C)OCCO1)CP(=O)(OCCCC)OCCCC)OCCCC [Compound 106] | 42 % of control value | 0.570 | potency in [^3 H]-PN200 110 binding (in words) ([1]; text on Table 1b): as potent as Nifedipine |
| C=CCCOP(=O)(CC(CCOc1ccccc1)CP(=O)(OCCC=C)OCCC=C)OCCC=C [Compound 110] | 13 % of control value | 0.294 |  |
| COc1ccc(CCN(C)CCCC(C#N)(c2cc(OC)c(OC)c(OC)c2)C(C)C)cc1OC [Compound D-600] |  |  | effect on [^3 H]-Nitrendipine binding (in words) [2]: reduce [^3 H]-Nitrendipine binding affinity |
| Fc1ccc(C(c2ccc(F)cc2)N2CCN(C/C=C/c3ccccc3)CC2)cc1 [Flunarizine] |  |  | effect on [^3 H]-Nitrendipine binding (in words) [2]: reduce [^3 H]-Nitrendipine binding affinity |
| Cc1cccc(C)c1NC(=O)CN1CCN(CCCC(c2ccc(F)cc2)c2ccc(F)cc2)CC1 [Lidoflazine] |  |  | effect on [^3 H]-Nitrendipine binding (in words) [2]: reduce [^3 H]-Nitrendipine binding affinity |
| C[C@](N)(Cc1ccc(O)c(O)c1)C(=O)O [Methyl Dopa, reference compound] |  |  | inhibition in vivo at 1 mg/kg [3]: 0% |
| CC(C)NCC(O)COc1cccc2ccccc12 (centres unmarked) [Propranolol, reference compound] |  |  | inhibition in vivo at 1 mg/kg [3]: 11.8 ± 1.1% |
